Reference: patent US11059830B2, “Compounds that participate in cooperative binding and uses thereof” (Revolution Medicines, Inc., priority 2015, dated 2021)

Tests used:
[1] = biological target: T1, CEP25011.4 (residues 2134-2231) (Homo sapiens (Human), UniProt P62942+Q9BV73); test: ITC binding of FKBP12-compound binary complex to CEP250
Procedure: (§1) This protocol utilizes Isothermal Titration Calorimetry (ITC) to directly measure the heat change associated with binding of FKBP12-Compound 2 and FKBP12-Compound 6 binary complexes to CEP250. Measurement of the heat change allows accurate determination of association constants (Ka), reaction stoichiometry (N), and the change in binding enthalpy (ΔH).
(§2) Compound 2 and Compound 6 in 100% DMSO (in-house), Protein Buffer (10 mM HEPES, pH 7.5, 75 mM NaCl, 0.5 mM TCEP), assay buffer (protein buffer+1% DMSO), FKBP12 (in-house), CEP25029.4 (residues 1982-2231) and CEP25011.4 (residues 2134-2231) (in-house).
(§3) MicroCal™ ITC200 (GE Healthcare) Experimental Protocol: FKBP12 stock solution was diluted to 10 μM in assay buffer (1% DMSO final). Compound was added to FKBP12 to 20 μM (1% DMSO final), and binary complex was filled into the reaction cell of the ITC device after 5-10 min pre-incubation time. CEP250 protein stocks were diluted to 50 μM in assay buffer and supplemented with 20 μM compound (1% DMSO final) before being filled into the injection syringe. A control experiment in the absence of compound was also run to determine the heat associated with operational artifacts and the dilution of titrant as it was injected from the syringe into the reaction cell.

[2] = biological target: CEP25029.4 (residues 1982-2231) (Homo sapiens (Human), UniProt P62942+Q9BV73); test: as above
Procedure: as §1, §2, §3

FKBP12 [3] = biological target: T2, FKBP12 (Homo sapiens (Human), UniProt P62942); test: SPR binding of compound (analyte) to immobilized FKBP12 (Example 7); settings: 25° C., 12×HIS tagged FKBP12 immobilized on NTA chip; read-out: SPR affinity to FKBP12: KD
Procedure: This protocol utilizes Surface Plasmon Resonance (SPR) as a method to determine kinetics (KD, Ka, Kd) for the binding of compound (analyte) to immobilized FKBP12 (ligand).
Compound in 100% DMSO (in-house), 10×HBS-P+ buffer (GE Healthcare BR-1006-71), Assay buffer (1×HBS-P+ buffer, 1% DMSO), 12×HIS tagged FKBP12 (in-house).
(§4) Experiments are performed at 25° C. Stock solution of 12×HIS tagged FKBP12 is diluted to 100 nM in assay buffer (1% DMSO final). Approximately 500-600 RU of FKBP12 is immobilized on one of two flow cells of an activated NTA chip. The second flow cell is not activated as a reference for non-specific interaction of the analyte to the sensor chip. Various concentrations of compound (1 nM-1 μM range), serially diluted into the same assay buffer (1% DMSO final), are injected onto the FKBP12 surface and reference surface at a flow rate of 10 μl/min. The surface is regenerated between analyte injections with 350 mM EDTA.
(§5) The BiaEvaluation software program is used for data fitting. All data is reference subtracted against both the reference flow cell and a buffer injection. For kinetic analyses, data is locally fit to a 1:1 interaction model.

[4] = biological target: T1, CEP25011.4 (residues 2134-2231); test: SPR binding of CEP250 (analyte) to immobilized FKBP12-Compound 2 binary complex; settings: FKBP12/Compound 2 complex binding to CEP25011.4, SPR, 1 μM compound
Procedure: (§6) This protocol utilizes Surface Plasmon Resonance (SPR) as a method to determine kinetics (KD, Ka, Kd) for the binding of CEP250 (analyte) to immobilized FKBP12-Compound 2 binary complex (ligand).
(§7) Compound 2 in 100% DMSO (in-house), 10×HBS-P+ buffer (GE Healthcare BR-1006-71), Assay buffer (1×HBS-P+ buffer, 1% DMSO, 1 μM Compound 2), 12×HIS tagged FKBP12 (in-house), CEP25029.2 (residues 1982-2231) and CEP25011.4 (residues 2134-2231) (in-house).
as §4, with “buffer containing 1 μM Compound 2” for “buffer”, “200-400” for “500-600”, “CEP250” for “compound”
as §5

[5] = biological target: CEP25029.2 (residues 1982-2231) (Homo sapiens (Human), UniProt P62942+Q9BV73); test: as above; settings: FKBP12/Compound 2 complex binding to CEP25029.2, SPR, 1 μM compound
Procedure: as §6, §7
as §4, with “buffer containing 1 μM Compound 2” for “buffer”, “200-400” for “500-600”, “CEP250” for “compound”
as §5

FKBP12 [6] = biological target: T2, FKBP12; test: AlphaLISA FKBP12 binding: inhibition of binding of biotinylated FK506 to FLAG tagged FKBP12; settings: read-out: Binding affinity to FKBP12 (by displacement of FK506)
Source text: The binding of compounds of the invention to FKBP12 can be determined using the following protocol.
This protocol utilizes Perkin Elmers AlphaLISA technology platform to detect FKBP binders by measuring the inhibition of binding of biotinylated FK506 to FLAG tagged FKBP12.
10×TBST Buffer (Boston BioProducts IBB-181), Biotinylated FK506 (in-house), FLAG tagged FKBP (in-house); anti-FLAG Donor beads (Perkin Elmer AS103) and Streptavidin Acceptor beads (Perkin Elmer AL125); Compounds in DMSO (in-house), FK506.
Experimental Protocol/Description of Assay: Add 20 uL of 12.5 nM FKBP-FLAG working stock to each well of the 96-well plate. Add 1 uL of test compound (100% DMSO) to each well of the plate using the Janus MTD head and P20 tips (except control wells). Add 1 uL of DMSO to negative control wells and 1 uL of 50 uM FK506 solution to positive control wells. In the dark, add 20 uL of combined Donor/Acceptor beads to each well. Incubate in the dark for 30 minutes at room temperature. In the dark, add 10 uL of 5 nM biotinylated FK506 working stock to each well. Incubate in the dark for 60 minutes at room temperature. Protect plate from light until reading on Biotek Synergy2 Plate Reader; Alphalisa 96-well protocol (680 excitation/615 emission).

Chain of CEP25029.4 (residues 1982-2231) (Q9BV73 1982-2231): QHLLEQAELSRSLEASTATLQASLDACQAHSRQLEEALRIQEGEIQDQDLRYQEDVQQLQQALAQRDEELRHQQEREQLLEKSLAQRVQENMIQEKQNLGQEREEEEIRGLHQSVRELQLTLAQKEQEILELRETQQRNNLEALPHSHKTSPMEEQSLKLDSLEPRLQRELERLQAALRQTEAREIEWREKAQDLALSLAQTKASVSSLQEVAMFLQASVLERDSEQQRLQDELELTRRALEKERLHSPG
Chain of CEP25029.4 (residues 1982-2231) (P62942 whole entry, the tested form may be a part): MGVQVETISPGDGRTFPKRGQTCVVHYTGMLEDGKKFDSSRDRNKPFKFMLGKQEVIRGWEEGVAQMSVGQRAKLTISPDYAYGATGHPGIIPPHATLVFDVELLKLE
T1 sequence (Q9BV73 2134-2231): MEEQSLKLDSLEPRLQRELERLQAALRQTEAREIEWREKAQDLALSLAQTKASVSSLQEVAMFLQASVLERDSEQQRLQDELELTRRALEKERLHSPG
T1 sequence (P62942 whole entry, the tested form may be a part): as the sequence (P62942 whole entry, the tested form may be a part) above
T2 sequence (P62942 whole entry): as the sequence (P62942 whole entry, the tested form may be a part) above
Chain of CEP25029.2 (residues 1982-2231) (Q9BV73 1982-2231): as the sequence (Q9BV73 1982-2231) above
Chain of CEP25029.2 (residues 1982-2231) (P62942 whole entry, the tested form may be a part): as the sequence (P62942 whole entry, the tested form may be a part) above

## CC[C@H](Cc1ccccc1)[C@@H]1/C=C/C/C=C/C[C@@H](C)[C@H](O)[C@@H](C)[C@@H]2CC[C@@H](C)C(=O)C(O)(O2)C(=O)N2CCCC[C@H]2C(=O)O1 [Compound 2]
[1]
  Kd: 70 nM
[1]; ITC, FKBP12 10 μM in cell, CEP25011.4 68 μM in syringe, ligand 20 μM, 298 K
  ΔH: -11.8 kcal/mol
[1]; ITC, FKBP12 10 μM, CEP25011.4 68 μM, ligand 20 μM, 298 K, ΔG = −RT ln Ka
  ΔG: -9.739 kcal/mol
[1]; ITC, FKBP12 10 μM, CEP25011.4 68 μM, ligand 20 μM, 298 K, −TΔS = ΔG − ΔH
  −T*ΔS: 2.06 kcal/mol
[2]
  Kd: 190 nM
[2]; ITC, FKBP12 10 μM in cell, CEP25029.4 118 μM in syringe, ligand 20 μM, 298 K
  ΔH: -12.48 kcal/mol
[2]; ITC, FKBP12 10 μM, CEP25029.4 118 μM, ligand 20 μM, 298 K, ΔG = −RT ln Ka
  ΔG: -9.18 kcal/mol
[2]; ITC, FKBP12 10 μM, CEP25029.4 118 μM, ligand 20 μM, 298 K, −TΔS = ΔG − ΔH
  −T*ΔS: 3.298 kcal/mol
FKBP12 [3]
  Kd: 12.6 nM
[4]
  Kd: 0.00309 s⁻¹
[4]; read-out: Ka
  kon: 571000 M⁻¹ s⁻¹
[5]
  koff: 9.25e-05 s⁻¹
[5]; read-out: Ka
  kon: 311000 M⁻¹ s⁻¹
FKBP12 [6]
  IC50: 1.5 nM
